Assay results published in patent US20260022142A1, “MACROCYCLIC IMMUNOMODULATORS” (Bristol-Myers Squibb Company, priority 2022, published 2026).
Numbered stars: 1 amine (or outer) side, 2 acyl side, 3 side chain; on linkers, the order of the positions; unused ones are H or OH. Bridge positions count the residues as written; N and C are the ends. Square brackets hold non-standard residues; d marks the D form. Peptide text beside a SMILES is read from it. * marks the point of attachment. Phe(3-CF3) = N[C@@H](Cc1cccc(C(F)(F)F)c1)C(=O)O; Ala(morpholin-4-yl) = N[C@@H](CN1CCOCC1)C(=O)O; Phe(4-COOH) = N[C@@H](Cc1ccc(C(=O)O)cc1)C(=O)O; Bip = N[C@@H](Cc1ccc(-c2ccccc2)cc1)C(=O)O; NH(CH2)14COOH = O=C(O)CCCCCCCCCCCCCCN*; γGlu = O=C(O)[C@H](CCC(=O)[*:2])N[*:1]; Abu(3S-NH2) = C[C@H](N)[C@H](N)C(=O)O; βAsp = O=C(O)[C@H](CC(=O)[*:2])N[*:1]; NH(CH2)12COOH = O=C(O)CCCCCCCCCCCCN*; Val(3-OH) = CC(C)(O)[C@H](N)C(=O)O; Cha = N[C@@H](CC1CCCCC1)C(=O)O; PEG4 = NCCOCCOCCOCCOCCC(=O)O; Carboxymethyl = O=C(O)C*; Orn = NCCC[C@H](N)C(=O)O; Dab = NCC[C@H](N)C(=O)O; Nva = CCC[C@H](N)C(=O)O; AEEA = NCCOCCOCC(=O)O

Each molecule was assayed against T1, PD-1/PD-L1 interaction (PE-labeled human PD-L1-Ig binding to Jurkat cell line over-expressing human PD-1) (Homo sapiens, UniProt Q15116) (assay: Jurkat-PD-1 Cell Binding High-Content Screening Assay (CBA)). Conditions: Jurkat cell line over-expressing human PD-1; PE-labeled PD-L1-Ig 20 nM final; read-out: Jurkat hPD1-PDL1 IC50.
T1 construct: expressed in transfected cells; host or cells: Jurkat
T1 sequence (Q15116 25-288): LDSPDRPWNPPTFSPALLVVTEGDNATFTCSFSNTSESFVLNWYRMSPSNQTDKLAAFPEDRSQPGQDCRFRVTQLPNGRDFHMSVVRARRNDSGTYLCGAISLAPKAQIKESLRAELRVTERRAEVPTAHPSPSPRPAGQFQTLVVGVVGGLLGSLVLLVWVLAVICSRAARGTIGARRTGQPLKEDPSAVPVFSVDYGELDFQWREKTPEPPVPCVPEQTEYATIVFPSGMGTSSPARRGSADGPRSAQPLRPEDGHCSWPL
Format: cell-based
Outline: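 Jurkat-hPD-1 cells, DMEM/10% FCS; cpd 2 h 37° C; PE-PD-L1-Ig 20 nM final, 1 h; 4% PFA fix + Hoechst 33342, 3× dPBS wash; high-content imaging read-out.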

Compound	IC50
CC(C)C[C@@H]1NC(=O)CSC[C@@H](C(=O)N[C@@H](CCN)C(=O)NCCOCCOCC(=O)N[C@@H](CC(=O)NCCOCCOCC(=O)NCCCCCCCCCCCCC(=O)O)C(=O)O)NC(=O)[C@H](CO)NC(=O)[C@H](C(C)(C)O)NC(=O)[C@H](CC2CCCCC2)NC(=O)[C@H](CCN)NC(=O)[C@@H](CC(C)C)NC(=O)[C@H](CCCN)NC(=O)[C@H](Cc2ccc(C(=O)O)cc2)NC(=O)[C@H](Cc2ccc(-c3ccccc3)cc2)NC(=O)[C@H](Cc2ccc(C(=O)O)cc2)NC(=O)[C@H](Cc2cccc(C(F)(F)F)c2)NC(=O)[C@H](CC(=O)O)NC(=O)[C@H](Cc2ccc(OCC(=O)O)cc2)NC1=O [Compound 2937] ({CH2CO}-LY(Carboxymethyl)D[Phe(3-CF3)][Phe(4-COOH)][Bip][Phe(4-COOH)][Orn][dL][Dab][Cha][Val(3-OH)]SC[Dab][AEEA][βAsp][AEEA]-{NH(CH2)12COOH}; thioether N-14)	11.7 nM
COC[C@@H]1NC(=O)CSC[C@@H](C(=O)N[C@@H](CCN)C(=O)NCCOCCOCC(=O)N[C@@H](CCC(=O)NCCOCCOCC(=O)NCCCCCCCCCCCCC(=O)O)C(=O)O)NC(=O)[C@H](CO)NC(=O)[C@H](C(C)(C)O)NC(=O)[C@H](CC2CCCCC2)NC(=O)[C@H](CCN)NC(=O)[C@@H](CC(C)C)NC(=O)[C@H](CCCN)NC(=O)[C@H](Cc2ccc(C(=O)O)cc2)NC(=O)[C@H](Cc2ccc(-c3ccccc3)cc2)NC(=O)[C@H](Cc2ccc(C(=O)O)cc2)NC(=O)[C@H](Cc2cccc(C(F)(F)F)c2)NC(=O)[C@H](CC(=O)O)NC(=O)[C@H](Cc2ccc(OCC(=O)O)cc2)NC1=O [Compound 2938] ({CH2CO}-S(Me)Y(Carboxymethyl)D[Phe(3-CF3)][Phe(4-COOH)][Bip][Phe(4-COOH)][Orn][dL][Dab][Cha][Val(3-OH)]SC[Dab][AEEA][γGlu][AEEA]-{NH(CH2)12COOH}; thioether N-14)	26.8 nM
CC(C)C[C@H]1NC(=O)[C@H](CCCN)NC(=O)[C@H](Cc2ccc(C(=O)O)cc2)NC(=O)[C@H](Cc2ccc(-c3ccccc3)cc2)NC(=O)[C@H](Cc2ccc(C(=O)O)cc2)NC(=O)[C@H](Cc2cccc(C(F)(F)F)c2)NC(=O)[C@H](CC(=O)O)NC(=O)[C@H](Cc2ccc(OCC(=O)O)cc2)NC(=O)[C@H](CN2CCOCC2)NC(=O)CSC[C@@H](C(=O)N[C@@H](CCN)C(=O)NCCOCCOCC(=O)N[C@@H](CCC(=O)NCCOCCOCC(=O)NCCCCCCCCCCCCC(=O)O)C(=O)O)NC(=O)[C@H](CO)NC(=O)[C@H](C(C)(C)O)NC(=O)[C@H](CC2CCCCC2)NC(=O)[C@H](CCN)NC1=O [Compound 2940] ({CH2CO}-[Ala(morpholin-4-yl)]Y(Carboxymethyl)D[Phe(3-CF3)][Phe(4-COOH)][Bip][Phe(4-COOH)][Orn][dL][Dab][Cha][Val(3-OH)]SC[Dab][AEEA][γGlu][AEEA]-{NH(CH2)12COOH}; thioether N-14)	14.3 nM
CC(C)C[C@H]1NC(=O)[C@H](CCCN)NC(=O)[C@H](Cc2ccc(C(=O)O)cc2)NC(=O)[C@H](Cc2ccc(-c3ccccc3)cc2)NC(=O)[C@H](Cc2ccc(C(=O)O)cc2)NC(=O)[C@H](Cc2cccc(C(F)(F)F)c2)NC(=O)[C@H](CC(=O)O)NC(=O)[C@H](Cc2ccc(OCC(=O)O)cc2)NC(=O)[C@H](CN2CCOCC2)NC(=O)CSC[C@@H](C(=O)N[C@@H](CCN)C(=O)NCCOCCOCC(=O)N[C@@H](CC(=O)NCCOCCOCC(=O)NCCCCCCCCCCCCC(=O)O)C(=O)O)NC(=O)[C@H](CO)NC(=O)[C@H](C(C)(C)O)NC(=O)[C@H](CC2CCCCC2)NC(=O)[C@H](CCN)NC1=O [Compound 2941] ({CH2CO}-[Ala(morpholin-4-yl)]Y(Carboxymethyl)D[Phe(3-CF3)][Phe(4-COOH)][Bip][Phe(4-COOH)][Orn][dL][Dab][Cha][Val(3-OH)]SC[Dab][AEEA][βAsp][AEEA]-{NH(CH2)12COOH}; thioether N-14)	27.8 nM
CC(C)C[C@H]1NC(=O)[C@H](CCCN)NC(=O)[C@H](Cc2ccc(C(=O)O)cc2)NC(=O)[C@H](Cc2ccc(-c3ccccc3)cc2)NC(=O)[C@H](Cc2ccc(C(=O)O)cc2)NC(=O)[C@H](Cc2cccc(C(F)(F)F)c2)NC(=O)[C@H](CC(=O)O)NC(=O)[C@H](Cc2ccc(OCC(=O)O)cc2)NC(=O)[C@H](CCN)NC(=O)CSC[C@@H](C(=O)N[C@@H](CCN)C(=O)NCCOCCOCC(=O)N[C@@H](CC(=O)NCCOCCOCC(=O)NCCCCCCCCCCCCC(=O)O)C(=O)O)NC(=O)[C@H](CO)NC(=O)[C@H](C(C)(C)O)NC(=O)[C@H](CC2CCCCC2)NC(=O)[C@H](CCN)NC1=O [Compound 2943] ({CH2CO}-[Dab]Y(Carboxymethyl)D[Phe(3-CF3)][Phe(4-COOH)][Bip][Phe(4-COOH)][Orn][dL][Dab][Cha][Val(3-OH)]SC[Dab][AEEA][βAsp][AEEA]-{NH(CH2)12COOH}; thioether N-14)	75.8 nM
CC(C)C[C@H]1NC(=O)[C@H](CCCN)NC(=O)[C@H](Cc2ccc(C(=O)O)cc2)NC(=O)[C@H](Cc2ccc(-c3ccccc3)cc2)NC(=O)[C@H](Cc2ccc(C(=O)O)cc2)NC(=O)[C@H](Cc2cccc(C(F)(F)F)c2)NC(=O)[C@H](CC(=O)O)NC(=O)[C@H](Cc2ccc(OCC(=O)O)cc2)NC(=O)[C@H]([C@H](C)N)NC(=O)CSC[C@@H](C(=O)N[C@@H](CCN)C(=O)NCCCCCCCCCCCCC(=O)O)NC(=O)[C@H](CO)NC(=O)[C@H](C(C)(C)O)NC(=O)[C@H](CC2CCCCC2)NC(=O)[C@H](CCN)NC1=O [Compound 2944] ({CH2CO}-[Abu(3S-NH2)]Y(Carboxymethyl)D[Phe(3-CF3)][Phe(4-COOH)][Bip][Phe(4-COOH)][Orn][dL][Dab][Cha][Val(3-OH)]SC[Dab]-{NH(CH2)12COOH}; thioether N-14)	55 nM
CC(C)C[C@H]1NC(=O)[C@H](CCCN)NC(=O)[C@H](Cc2ccc(C(=O)O)cc2)NC(=O)[C@H](Cc2ccc(-c3ccccc3)cc2)NC(=O)[C@H](Cc2ccc(C(=O)O)cc2)NC(=O)[C@H](Cc2cccc(C(F)(F)F)c2)NC(=O)[C@H](CC(=O)O)NC(=O)[C@H](Cc2ccc(OCC(=O)O)cc2)NC(=O)[C@H](CN2CCOCC2)NC(=O)CSC[C@@H](C(=O)N[C@@H](CCN)C(=O)NCCOCCOCCOCCOCCC(=O)NCCCCCCCCCCCCC(=O)O)NC(=O)[C@H](CC(=O)O)NC(=O)[C@H](C(C)(C)O)NC(=O)[C@H](CC2CCCCC2)NC(=O)[C@H](CCN)NC1=O [Compound 2947] ({CH2CO}-[Ala(morpholin-4-yl)]Y(Carboxymethyl)D[Phe(3-CF3)][Phe(4-COOH)][Bip][Phe(4-COOH)][Orn][dL][Dab][Cha][Val(3-OH)]DC[Dab][PEG4]-{NH(CH2)12COOH}; thioether N-14)	64.4 nM

Second part, the molecule after the results:

IC50	Compound
352 nM	CC(C)C[C@H]1NC(=O)[C@H](CCCN)NC(=O)[C@H](Cc2ccc(C(=O)O)cc2)NC(=O)[C@H](Cc2ccc(-c3ccccc3)cc2)NC(=O)[C@H](Cc2ccc(C(=O)O)cc2)NC(=O)[C@H](Cc2cccc(C(F)(F)F)c2)NC(=O)[C@H](CC(=O)O)NC(=O)[C@H](Cc2ccc(OCC(=O)O)cc2)NC(=O)[C@H](CN2CCOCC2)NC(=O)CSC[C@@H](C(=O)N[C@@H](CCN)C(=O)NCCOCCOCCOCCOCCC(=O)NCCCCCCCCCCCCCCC(=O)O)NC(=O)[C@H](CC(=O)O)NC(=O)[C@H](C(C)(C)O)NC(=O)[C@H](CC2CCCCC2)NC(=O)[C@H](CCN)NC1=O [Compound 2948] ({CH2CO}-[Ala(morpholin-4-yl)]Y(Carboxymethyl)D[Phe(3-CF3)][Phe(4-COOH)][Bip][Phe(4-COOH)][Orn][dL][Dab][Cha][Val(3-OH)]DC[Dab][PEG4]-{NH(CH2)14COOH}; thioether N-14)
305 nM	CC(C)C[C@H]1NC(=O)[C@H](CCCN)NC(=O)[C@H](Cc2ccc(C(=O)O)cc2)NC(=O)[C@H](Cc2ccc(-c3ccccc3)cc2)NC(=O)[C@H](Cc2ccc(C(=O)O)cc2)NC(=O)[C@H](Cc2cccc(C(F)(F)F)c2)NC(=O)[C@H](CC(=O)O)NC(=O)[C@H](Cc2ccc(OCC(=O)O)cc2)NC(=O)[C@H](CN2CCOCC2)NC(=O)CSC[C@@H](C(=O)N[C@@H](CCN)C(=O)NCCCCCCCCCCCCCCC(=O)O)NC(=O)[C@H](CC(=O)O)NC(=O)[C@H](C(C)(C)O)NC(=O)[C@H](CC2CCCCC2)NC(=O)[C@H](CCN)NC1=O [Compound 2949] ({CH2CO}-[Ala(morpholin-4-yl)]Y(Carboxymethyl)D[Phe(3-CF3)][Phe(4-COOH)][Bip][Phe(4-COOH)][Orn][dL][Dab][Cha][Val(3-OH)]DC[Dab]-{NH(CH2)14COOH}; thioether N-14)
52.4 nM	CCC[C@@H]1NC(=O)CSC[C@@H](C(=O)N[C@@H](CCN)C(=O)NCCOCCOCCOCCOCCC(=O)NCCCCCCCCCCCCC(=O)O)NC(=O)[C@H](Cc2c[nH]cn2)NC(=O)[C@H](C(C)(C)O)NC(=O)[C@H](CC2CCCCC2)NC(=O)[C@H](CCN)NC(=O)[C@@H](CC(C)C)NC(=O)[C@H](CCCN)NC(=O)[C@H](Cc2ccc(C(=O)O)cc2)NC(=O)[C@H](Cc2ccc(-c3ccccc3)cc2)NC(=O)[C@H](Cc2ccc(C(=O)O)cc2)NC(=O)[C@H](Cc2cccc(C(F)(F)F)c2)NC(=O)[C@H](CC(=O)O)NC(=O)[C@H](Cc2ccc(OCC(=O)O)cc2)NC1=O [Compound 2950] ({CH2CO}-[Nva]Y(Carboxymethyl)D[Phe(3-CF3)][Phe(4-COOH)][Bip][Phe(4-COOH)][Orn][dL][Dab][Cha][Val(3-OH)]HC[Dab][PEG4]-{NH(CH2)12COOH}; thioether N-14)
49.3 nM	CC(C)C[C@H]1NC(=O)[C@H](CCCN)NC(=O)[C@H](Cc2ccc(C(=O)O)cc2)NC(=O)[C@H](Cc2ccc(-c3ccccc3)cc2)NC(=O)[C@H](Cc2ccc(C(=O)O)cc2)NC(=O)[C@H](Cc2cccc(C(F)(F)F)c2)NC(=O)[C@H](CC(=O)O)NC(=O)[C@H](Cc2ccc(OCC(=O)O)cc2)NC(=O)[C@H](C)NC(=O)CSC[C@@H](C(=O)N[C@@H](CCN)C(=O)NCCOCCOCCOCCOCCC(=O)NCCCCCCCCCCCCC(=O)O)NC(=O)[C@H](Cc2c[nH]cn2)NC(=O)[C@H](C(C)(C)O)NC(=O)[C@H](CC2CCCCC2)NC(=O)[C@H](CCN)NC1=O [Compound 2953] ({CH2CO}-AY(Carboxymethyl)D[Phe(3-CF3)][Phe(4-COOH)][Bip][Phe(4-COOH)][Orn][dL][Dab][Cha][Val(3-OH)]HC[Dab][PEG4]-{NH(CH2)12COOH}; thioether N-14)
